Measurements: ChEMBL document CHEMBL1649226, “Species identification and antifungal susceptibility patterns of species belonging to Aspergillus section Nigri” (2009)
Converted amounts (≈) assume the structure as drawn.

Experiments:
Format in all cases: functional
Aspergillus niger [1] = experiment: Antifungal activity against Aspergillus niger isolate CM-3636 obtained from respiratory tract infection of patient after 48 hrs by EUCAST broth dilution method; settings: isolate CM-3636, 48 h
Aspergillus tubingensis [2] = experiment: Antifungal activity against Aspergillus tubingensis isolate CM-3654 obtained from blood culture after 48 hrs by EUCAST broth dilution method; settings: isolate CM-3654, 48 h
Aspergillus tubingensis [3] = experiment: Antifungal activity against Aspergillus tubingensis isolate CM-3123 obtained from respiratory tract infection of patient after 48 hrs by EUCAST broth dilution method; settings: isolate CM-3123, 48 h
Aspergillus foetidus [4] = experiment: Antifungal activity against Aspergillus foetidus isolate CM-4002 after 48 hrs by EUCAST broth dilution method; settings: isolate CM-4002, 48 h
Aspergillus tubingensis [5] = experiment: Antifungal activity against Aspergillus tubingensis isolate CM-4001 after 48 hrs by EUCAST broth dilution method; settings: isolate CM-4001, 48 h
Aspergillus tubingensis [6] = experiment: Antifungal activity against Aspergillus tubingensis isolate CM-3125 obtained from respiratory tract infection of patient after 48 hrs by EUCAST broth dilution method; settings: isolate CM-3125, 48 h
Aspergillus tubingensis [7] = experiment: Antifungal activity against Aspergillus tubingensis isolate CM-3810 obtained from respiratory tract infection of patient after 48 hrs by EUCAST broth dilution method; settings: isolate CM-3810, 48 h
Aspergillus tubingensis [8] = experiment: Antifungal activity against Aspergillus tubingensis isolate CM-4688 obtained from respiratory tract infection of patient after 48 hrs by EUCAST broth dilution method; settings: isolate CM-4688, 48 h
Aspergillus foetidus [9] = experiment: Antifungal activity against Aspergillus foetidus isolate CM-4995 obtained from prosthesis after 48 hrs by EUCAST broth dilution method; settings: isolate CM-4995, 48 h
Aspergillus niger [10] = experiment: Antifungal activity against Aspergillus niger isolate CM-4316 obtained from respiratory tract infection of patient after 48 hrs by EUCAST broth dilution method; settings: isolate CM-4316, 48 h
Aspergillus foetidus [11] = experiment: Antifungal activity against Aspergillus foetidus isolate CM-5264 obtained from respiratory tract infection of patient after 48 hrs by EUCAST broth dilution method; settings: isolate CM-5264, 48 h
Aspergillus niger [12] = experiment: Antifungal activity against Aspergillus niger isolate CM-4262 after 48 hrs by EUCAST broth dilution method Ophthalmic; settings: isolate CM-4262, 48 h
Aspergillus tubingensis [13] = experiment: Antifungal activity against Aspergillus tubingensis isolate CM-4003 after 48 hrs by EUCAST broth dilution method; settings: isolate CM-4003, 48 h
Aspergillus tubingensis [14] = experiment: Antifungal activity against Aspergillus tubingensis isolate CM-4005 after 48 hrs by EUCAST broth dilution method; settings: isolate CM-4005, 48 h
Aspergillus tubingensis [15] = experiment: Antifungal activity against Aspergillus tubingensis isolate CM-3507 obtained from respiratory tract infection of patient after 48 hrs by EUCAST broth dilution method; settings: isolate CM-3507, 48 h
Aspergillus niger [16] = experiment: Antifungal activity against Aspergillus niger isolate CM-4004 obtained from after 48 hrs by EUCAST broth dilution method; settings: isolate CM-4004, 48 h
Aspergillus tubingensis [17] = experiment: Antifungal activity against Aspergillus tubingensis isolate CM-4897 obtained from blood culture after 48 hrs by EUCAST broth dilution method; settings: isolate CM-4897, 48 h
Aspergillus niger [18] = experiment: Antifungal activity against Aspergillus niger isolate CM-3586 obtained from catheter of patient after 48 hrs by EUCAST broth dilution method; settings: isolate CM-3586, 48 h
Aspergillus niger [19] = experiment: Antifungal activity against Aspergillus niger isolate CM-3641 obtained from respiratory tract infection of patient after 48 hrs by EUCAST broth dilution method; settings: isolate CM-3641, 48 h
Aspergillus tubingensis [20] = experiment: Antifungal activity against Aspergillus tubingensis isolate CM-4899 obtained from respiratory tract infection of patient after 48 hrs by EUCAST broth dilution method; settings: isolate CM-4899, 48 h
Aspergillus niger [21] = experiment: Antifungal activity against Aspergillus niger isolate CM-3257 obtained from respiratory tract infection of patient after 48 hrs by EUCAST broth dilution method; settings: isolate CM-3257, 48 h
Aspergillus tubingensis [22] = experiment: Antifungal activity against Aspergillus tubingensis isolate CM-5094 obtained from respiratory tract infection of patient after 48 hrs by EUCAST broth dilution method; settings: isolate CM-5094, 48 h
Aspergillus niger [23] = experiment: Antifungal activity against Aspergillus niger isolate CM-4213 obtained from respiratory tract infection of patient after 48 hrs by EUCAST broth dilution method; settings: isolate CM-4213, 48 h
Aspergillus niger [24] = experiment: Antifungal activity against Aspergillus niger isolate CM-3551 obtained from respiratory tract infection of patient after 48 hrs by EUCAST broth dilution method; settings: isolate CM-3551, 48 h
Aspergillus niger [25] = experiment: Antifungal activity against Aspergillus niger isolate CM-3506 obtained from respiratory tract infection of patient after 48 hrs by EUCAST broth dilution method; settings: isolate CM-3506, 48 h
Aspergillus tubingensis [26] = experiment: Antifungal activity against Aspergillus tubingensis isolate CM-3177 obtained from respiratory tract infection of patient after 48 hrs by EUCAST broth dilution method; settings: isolate CM-3177, 48 h
Aspergillus tubingensis [27] = experiment: Antifungal activity against Aspergillus tubingensis isolate CM-4000 after 48 hrs by EUCAST broth dilution method; settings: isolate CM-4000, 48 h
Aspergillus tubingensis [28] = experiment: Antifungal activity against Aspergillus tubingensis isolate CM-4264 obtained from blood culture after 48 hrs by EUCAST broth dilution method; settings: isolate CM-4264, 48 h
Aspergillus tubingensis [29] = experiment: Antifungal activity against Aspergillus tubingensis isolate CM-4352 obtained from respiratory tract infection of patient after 48 hrs by EUCAST broth dilution method; settings: isolate CM-4352, 48 h
Aspergillus tubingensis [30] = experiment: Antifungal activity against Aspergillus tubingensis isolate CM-4296 obtained from respiratory tract infection of patient after 48 hrs by EUCAST broth dilution method; settings: isolate CM-4296, 48 h
Aspergillus niger [31] = experiment: Antifungal activity against Aspergillus niger isolate CM-3236 obtained from respiratory tract infection of patient after 48 hrs by EUCAST broth dilution method; settings: isolate CM-3236, 48 h
Aspergillus niger [32] = experiment: Antifungal activity against Aspergillus niger isolate CM-5095 obtained from respiratory tract infection of patient after 48 hrs by EUCAST broth dilution method; settings: isolate CM-5095, 48 h
Aspergillus niger [33] = experiment: Antifungal activity against Aspergillus niger isolate CM-3672 obtained from cutaneous layer of patient after 48 hrs by EUCAST broth dilution method; settings: isolate CM-3672, 48 h
Aspergillus tubingensis [34] = experiment: Antifungal activity against Aspergillus tubingensis isolate CM-3585 after 48 hrs by EUCAST broth dilution method; settings: isolate CM-3585, 48 h

Compound	MIC (Aspergillus niger [1]) [µg/mL]	MIC (Aspergillus tubingensis [2]) [µg/mL]	MIC (Aspergillus tubingensis [3]) [µg/mL]	MIC (Aspergillus foetidus [4]) [µg/mL]	MIC (Aspergillus tubingensis [5]) [µg/mL]	MIC (Aspergillus tubingensis [6]) [µg/mL]	MIC (Aspergillus tubingensis [7]) [µg/mL]	MIC (Aspergillus tubingensis [8]) [µg/mL]	MIC (Aspergillus foetidus [9]) [µg/mL]	MIC (Aspergillus niger [10]) [µg/mL]	MIC (Aspergillus foetidus [11]) [µg/mL]	MIC (Aspergillus niger [12]) [µg/mL]	MIC (Aspergillus tubingensis [13]) [µg/mL]	MIC (Aspergillus tubingensis [14]) [µg/mL]	MIC (Aspergillus tubingensis [15]) [µg/mL]	MIC (Aspergillus niger [16]) [µg/mL]	MIC (Aspergillus tubingensis [17]) [µg/mL]	MIC (Aspergillus niger [18]) [µg/mL]	MIC (Aspergillus niger [19]) [µg/mL]	MIC (Aspergillus tubingensis [20]) [µg/mL]	further results
CCC(C)n1ncn(-c2ccc(N3CCN(c4ccc(OCC5COC(Cn6cncn6)(c6ccc(Cl)cc6Cl)O5)cc4)CC3)cc2)c1=O (configuration not stated) [ITRACONAZOLE]	0.5 (≈ 0.709 µM)	1 (≈ 1.42 µM)	11 (≈ 15.6 µM)	1 (≈ 1.42 µM)	1 (≈ 1.42 µM)	0.5 (≈ 0.709 µM)	4 (≈ 5.67 µM)	3.67 (≈ 5.2 µM)	1 (≈ 1.42 µM)	0.5 (≈ 0.709 µM)	16 (≈ 22.7 µM)	1 (≈ 1.42 µM)	16 (≈ 22.7 µM)	16 (≈ 22.7 µM)	0.5 (≈ 0.709 µM)	1 (≈ 1.42 µM)	1 (≈ 1.42 µM)	0.5 (≈ 0.709 µM)	0.5 (≈ 0.709 µM)	1 (≈ 1.42 µM)	MIC (Aspergillus niger [21]): 1 µg/mL (≈ 1.42 µM); MIC (Aspergillus tubingensis [22]): 0.5 µg/mL (≈ 0.709 µM); MIC (Aspergillus niger [23]): 0.14 µg/mL (≈ 0.198 µM); MIC (Aspergillus niger [24]): 4.75 µg/mL (≈ 6.73 µM); MIC (Aspergillus niger [25]): 0.5 µg/mL (≈ 0.709 µM); MIC (Aspergillus tubingensis [26]): 1 µg/mL (≈ 1.42 µM); MIC (Aspergillus tubingensis [27]): 1 µg/mL (≈ 1.42 µM); MIC (Aspergillus tubingensis [28]): 0.5 µg/mL (≈ 0.709 µM); MIC (Aspergillus tubingensis [29]): 1 µg/mL (≈ 1.42 µM); MIC (Aspergillus tubingensis [30]): 0.75 µg/mL (≈ 1.06 µM); MIC (Aspergillus niger [31]): 0.5 µg/mL (≈ 0.709 µM); MIC (Aspergillus niger [32]): 0.5 µg/mL (≈ 0.709 µM); MIC (Aspergillus niger [33]): 0.5 µg/mL (≈ 0.709 µM); MIC (Aspergillus tubingensis [34]): 0.5 µg/mL (≈ 0.709 µM)
CN(C/C=C/C#CC(C)(C)C)Cc1cccc2ccccc12 [TERBINAFINE]	1 (≈ 3.43 µM)	0.63 (≈ 2.16 µM)	1.17 (≈ 4.01 µM)	0.33 (≈ 1.13 µM)	0.56 (≈ 1.92 µM)	0.5 (≈ 1.72 µM)	1 (≈ 3.43 µM)	1.5 (≈ 5.15 µM)	0.33 (≈ 1.13 µM)	0.5 (≈ 1.72 µM)	0.5 (≈ 1.72 µM)	0.29 (≈ 0.995 µM)	1 (≈ 3.43 µM)	0.25 (≈ 0.858 µM)	0.62 (≈ 2.13 µM)	0.13 (≈ 0.446 µM)	0.42 (≈ 1.44 µM)	0.12 (≈ 0.412 µM)	0.25 (≈ 0.858 µM)	0.33 (≈ 1.13 µM)	MIC (Aspergillus niger [21]): 1 µg/mL (≈ 3.43 µM); MIC (Aspergillus tubingensis [22]): 0.62 µg/mL (≈ 2.13 µM); MIC (Aspergillus niger [23]): 0.22 µg/mL (≈ 0.755 µM); MIC (Aspergillus niger [24]): 0.25 µg/mL (≈ 0.858 µM); MIC (Aspergillus niger [25]): 0.31 µg/mL (≈ 1.06 µM); MIC (Aspergillus tubingensis [26]): 0.67 µg/mL (≈ 2.3 µM); MIC (Aspergillus tubingensis [27]): 0.33 µg/mL (≈ 1.13 µM); MIC (Aspergillus tubingensis [28]): 0.5 µg/mL (≈ 1.72 µM); MIC (Aspergillus tubingensis [29]): 0.31 µg/mL (≈ 1.06 µM); MIC (Aspergillus tubingensis [30]): 0.62 µg/mL (≈ 2.13 µM); MIC (Aspergillus niger [31]): 1 µg/mL (≈ 3.43 µM); MIC (Aspergillus niger [32]): 0.62 µg/mL (≈ 2.13 µM); MIC (Aspergillus niger [33]): 0.07 µg/mL (≈ 0.24 µM); MIC (Aspergillus tubingensis [34]): 0.42 µg/mL (≈ 1.44 µM)
CC[C@@H]([C@H](C)O)n1ncn(-c2ccc(N3CCN(c4ccc(OC[C@@H]5CO[C@@](Cn6cncn6)(c6ccc(F)cc6F)C5)cc4)CC3)cc2)c1=O [POSACONAZOLE]	0.19 (≈ 0.271 µM)	0.25 (≈ 0.357 µM)	0.25 (≈ 0.357 µM)	0.12 (≈ 0.171 µM)	0.25 (≈ 0.357 µM)	0.12 (≈ 0.171 µM)	0.12 (≈ 0.171 µM)	0.25 (≈ 0.357 µM)	0.16 (≈ 0.228 µM)	0.125 (≈ 0.178 µM)	0.5 (≈ 0.713 µM)	0.25 (≈ 0.357 µM)	0.25 (≈ 0.357 µM)	0.5 (≈ 0.713 µM)	0.15 (≈ 0.214 µM)	0.25 (≈ 0.357 µM)	0.25 (≈ 0.357 µM)	0.12 (≈ 0.171 µM)	0.125 (≈ 0.178 µM)	0.25 (≈ 0.357 µM)	MIC (Aspergillus niger [21]): 0.25 µg/mL (≈ 0.357 µM); MIC (Aspergillus tubingensis [22]): 0.06 µg/mL (≈ 0.0856 µM); MIC (Aspergillus niger [23]): 0.03 µg/mL (≈ 0.0428 µM); MIC (Aspergillus niger [24]): 0.12 µg/mL (≈ 0.171 µM); MIC (Aspergillus niger [25]): 0.12 µg/mL (≈ 0.171 µM); MIC (Aspergillus tubingensis [26]): 0.25 µg/mL (≈ 0.357 µM); MIC (Aspergillus tubingensis [27]): 0.25 µg/mL (≈ 0.357 µM); MIC (Aspergillus tubingensis [28]): 0.12 µg/mL (≈ 0.171 µM); MIC (Aspergillus tubingensis [29]): 0.25 µg/mL (≈ 0.357 µM); MIC (Aspergillus tubingensis [30]): 0.19 µg/mL (≈ 0.271 µM); MIC (Aspergillus niger [31]): 0.12 µg/mL (≈ 0.171 µM); MIC (Aspergillus niger [32]): 0.12 µg/mL (≈ 0.171 µM); MIC (Aspergillus niger [33]): 0.19 µg/mL (≈ 0.271 µM); MIC (Aspergillus tubingensis [34]): 0.12 µg/mL (≈ 0.171 µM)
